From ChEMBL document CHEMBL5352409, “Design, synthesis, and pharmacological evaluation of 2-(1-(1,3,4-thiadiazol-2-yl)piperidin-4-yl)ethan-1-ol analogs as novel glutaminase 1 inhibitors” (Eur J Med Chem, 2022)
Active and inactive are the calls of the source. The rule behind the calls is not given here.

Key:
[1] = system: A549; experiment: Antiproliferative activity against human A549 cells assessed as reduction in cell viability; type: functional, cell-based
[2] = biological target: T1, Glutaminase kidney isoform, mitochondrial (Homo sapiens, UniProt O94925); experiment: Inhibition of GLS1 (unknown origin)
T1 sequence (O94925 whole entry): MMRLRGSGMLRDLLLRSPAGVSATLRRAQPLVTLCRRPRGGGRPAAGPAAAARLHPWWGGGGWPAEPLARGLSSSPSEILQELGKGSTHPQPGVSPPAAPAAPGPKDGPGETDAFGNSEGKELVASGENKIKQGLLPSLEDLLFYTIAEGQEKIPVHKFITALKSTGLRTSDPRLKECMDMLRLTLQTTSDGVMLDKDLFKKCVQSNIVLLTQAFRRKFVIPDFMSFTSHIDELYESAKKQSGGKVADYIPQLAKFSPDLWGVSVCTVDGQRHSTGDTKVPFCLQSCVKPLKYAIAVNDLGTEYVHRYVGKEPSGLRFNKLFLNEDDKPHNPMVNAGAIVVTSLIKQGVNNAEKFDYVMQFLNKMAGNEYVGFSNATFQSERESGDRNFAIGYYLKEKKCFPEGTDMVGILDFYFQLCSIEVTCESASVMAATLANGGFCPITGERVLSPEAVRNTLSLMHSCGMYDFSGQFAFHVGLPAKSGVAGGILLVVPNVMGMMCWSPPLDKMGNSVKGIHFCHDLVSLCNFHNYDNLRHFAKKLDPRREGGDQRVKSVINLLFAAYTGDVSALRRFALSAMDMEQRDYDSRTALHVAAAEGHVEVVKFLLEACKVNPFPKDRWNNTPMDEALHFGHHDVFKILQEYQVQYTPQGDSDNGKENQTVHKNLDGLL

[3] = biological target: T2, Glutaminase liver isoform, mitochondrial (Homo sapiens, UniProt Q9UI32); experiment: Inhibition of GLS2 (unknown origin)
T2 sequence (Q9UI32 whole entry): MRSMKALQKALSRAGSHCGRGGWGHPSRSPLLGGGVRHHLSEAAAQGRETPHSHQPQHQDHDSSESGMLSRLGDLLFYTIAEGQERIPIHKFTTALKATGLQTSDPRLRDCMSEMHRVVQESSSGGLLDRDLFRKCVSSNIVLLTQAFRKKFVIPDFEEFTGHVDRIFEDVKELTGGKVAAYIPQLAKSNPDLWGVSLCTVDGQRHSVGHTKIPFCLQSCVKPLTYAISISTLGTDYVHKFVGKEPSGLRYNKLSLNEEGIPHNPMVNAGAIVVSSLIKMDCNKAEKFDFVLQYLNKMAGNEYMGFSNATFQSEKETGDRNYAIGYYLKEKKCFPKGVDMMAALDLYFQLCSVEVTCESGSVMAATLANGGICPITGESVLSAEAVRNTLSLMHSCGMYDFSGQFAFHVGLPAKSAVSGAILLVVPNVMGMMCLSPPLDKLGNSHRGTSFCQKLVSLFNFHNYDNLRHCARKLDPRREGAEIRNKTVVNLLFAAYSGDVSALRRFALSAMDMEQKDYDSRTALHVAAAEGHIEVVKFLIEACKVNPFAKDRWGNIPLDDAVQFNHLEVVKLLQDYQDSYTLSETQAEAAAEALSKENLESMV

[4] = organism: Homo sapiens; experiment: Selectivity ratio of IC50 for GLS2 (unknown origin) to IC50 for GLS1 (unknown origin)
[5] = system: A549; experiment: Inhibition of glutaminase in human A549 cells assessed as ratio of glutamine to glutamate level (Rv b= 0.45 +/- 0.011); type: cell-based
[6] = human, microsomes
Description: Metabolic stability in human liver microsome assessed as intrinsic clearance

[7] = system: HCT-116; experiment: cells; conditions: Homo sapiens
[8] = in vitro; conditions: human, liver microsomes
[9] = system: A549; experiment: Inhibition of colony formation in human A549 cells at 2 to 8 uM; type: functional, cell-based; conditions: dose 2-8 µM
[10] = system: HCT-116; experiment: Inhibition of colony formation in human HCT-116 cells at 2 to 8 uM; type: functional, cell-based; conditions: dose 2-8 µM
[11] = biological target: T3, Glutaminase kidney isoform, mitochondrial (Homo sapiens) (UniProt O94925); experiment: Potency index, ratio of BPTES IC50 to test compound IC50 for inhibition of GLS1 (unknown origin)
T3 sequence (whole entry): T1 sequence (O94925 whole entry)

[12] = Cmax in rat at 5 mg/kg, iv; type: ADME, organism-based; parameters: dose 5 mg/kg, route iv; conditions: in vivo
[13] = Cmax in rat at 5 mg/kg, po; type: ADME, organism-based; parameters: dose 5 mg/kg, route po; conditions: in vivo
[14] = AUC(0 to t) in rat at 5 mg/kg, iv; type: ADME, organism-based; parameters: dose 5 mg/kg, route iv; conditions: in vivo
[15] = AUC(0 to t) in rat at 5 mg/kg, po; type: ADME, organism-based; parameters: dose 5 mg/kg, route po; conditions: in vivo
[16] = AUC(0 to t) in rat at 3 mg/kg, iv; type: ADME, organism-based; parameters: dose 3 mg/kg, route iv; conditions: in vivo
[17] = system: A549; experiment: Antitumor activity against human A549 cells xenografted in mouse model assessed as tumor growth inhibition at 100 mg/kg once daily via oral gavage administered for 28 days relative to control; type: functional; parameters: scale not given: the % may be the effect or the level left; conditions: time 28 day
[18] = Oral bioavailability in rat at 5 mg/kg; type: ADME, organism-based; conditions: in vivo
[19] = system: HCT-116; experiment: Antitumor activity against human HCT-116 cells xenografted in mouse model assessed as tumor growth inhibition at 100 mg/kg once daily via oral gavage administered for 28 days relative to control; type: functional; parameters: scale not given: the % may be the effect or the level left; conditions: time 28 day
[20] = system: A549; experiment: Induction of apoptosis in human A549 cells assessed as early apoptotic cells at 1 uM incubated for 48 hrs by annexin V-FITC and propidium iodide based flow cytometry analysis (Rvb =12.289%); type: functional
[21] = system: A549; experiment: Induction of apoptosis in human A549 cells assessed as early apoptotic cells at 5 uM incubated for 48 hrs by annexin V-FITC and propidium iodide based flow cytometry analysis (Rvb =12.289%); type: functional
[22] = system: A549; experiment: Induction of apoptosis in human A549 cells assessed as early apoptotic cells at 10 uM incubated for 48 hrs by annexin V-FITC and propidium iodide based flow cytometry analysis (Rvb =12.289%); type: functional
[23] = system: A549; experiment: Induction of apoptosis in human A549 cells assessed as late apoptotic cells at 1 uM incubated for 48 hrs by annexin V-FITC and propidium iodide based flow cytometry analysis (Rvb =9.696%); type: functional
[24] = system: A549; experiment: Induction of apoptosis in human A549 cells assessed as late apoptotic cells at 5 uM incubated for 48 hrs by annexin V-FITC and propidium iodide based flow cytometry analysis (Rvb =9.696%); type: functional
[25] = system: A549; experiment: Induction of apoptosis in human A549 cells assessed as late apoptotic cells at 10 uM incubated for 48 hrs by annexin V-FITC and propidium iodide based flow cytometry analysis (Rvb =9.696%); type: functional
[26] = system: HCT-116; experiment: Antitumor activity against human HCT-116 cells xenografted in mouse model assessed as reduction in tumor cells at 100 mg/kg administered via oral gavage for 28 days; type: functional, organism-based; conditions: time 28.0 day
[27] = in vivo; conditions: rat, iv, 5 mg/kg
[28] = in vivo; conditions: rat, po, 5 mg/kg
[29] = system: A549; experiment: Potency index, ratio of BPTES IC50 to test compound IC50 for antiproliferative activity against human A549 cells; type: functional
[30] = system: HCT-116; experiment: Potency index, ratio of BPTES IC50 to test compound IC50 for antiproliferative activity against human HCT-116 cells; type: functional

Compound | IC50 [1] [nM] | IC50 [2] [nM] | IC50 [3] [nM] | Ratio IC50 [4] | Ratio [5] | CLH [6] [g/mL/min] | IC50 [7] [nM] | half-life [8] [h] | inhibition [9] | inhibition [10] | also measured
CN1CCN(c2cccc(NC(=O)c3ccc(COCCC4CCN(c5nnc(NC(=O)Cc6ccccc6)s5)CC4)cc3)c2)CC1 | 650 | 62 | > 15000 | > 100 | 0.74 | 35.8 | 260 | > 2 | – | – | –
Cc1ccccc1CN1CCC(CNC(=O)c2cccc(COCCC3CCN(c4nnc(NC(=O)Cc5ccccc5)s4)CC3)c2)CC1 | 980 | 85 | > 15000 | > 100 | 1.49 | 46.8 | 550 | > 2 | Active | Active | Ratio IC50 [11]: 50
CN1CCN(c2cccc(NC(=O)c3ccc(CN4CCN(c5nnc(NC(=O)Cc6ccccc6)s5)CC4)cc3)c2)CC1 | 970 | 79 | > 15000 | > 100 | 1.1 | 60.3 | 520 | 1.04 | – | – | –
CN1CCN(c2cccc(NC(=O)c3cccc(CN4CCN(c5nnc(NC(=O)Cc6ccccc6)s5)CC4)c3)c2)CC1 | 870 | 65 | > 15000 | > 100 | 1.17 | 21.2 | 1130 | > 2 | Active | Active | –
C=CCCC(=O)N1CCC(CNC(=O)c2ccc(COCCC3CCN(c4nnc(NC(=O)Cc5ccccc5)s4)CC3)cc2)CC1 | 1360 | 268 | – | – | – | – | 2070 | – | Active | Active | –
CCCCCCN1CCC(CNC(=O)c2ccc(COCCC3CCN(c4nnc(NC(=O)Cc5ccccc5)s4)CC3)cc2)CC1 | 740 | 88 | > 15000 | > 100 | 1.42 | 22.3 | 340 | > 2 | – | – | –
CN1CCN(c2ccc(C(=O)Nc3ccc(CN4CCN(c5nnc(NC(=O)Cc6ccccc6)s5)CC4)cc3)cc2)CC1 | 760 | 66 | > 15000 | > 100 | 0.8 | 56.4 | 530 | 1.12 | – | – | –
O=C(Cc1ccccc1)Nc1nnc(CCSCCc2nnc(NC(=O)Cc3ccccc3)s2)s1 | 49000 | – | – | – | – | – | 44000 | – | Active | Active | Cmax [12]: 493 ng/mL; Cmax [13]: 17.8 ng/mL; AUCt [14]: 543.3 ng·h/mL; AUC(0-t) [15]: 12.5 ng·h/mL; AUC(0-t) [16]: 2090 ng·h/mL; Activity [17]: 18.8%; bioavailability [18]: 2.3%; Activity [19]: 22.3%; Activity [20]: 15.403%; Activity [21]: 15.055%; Activity [22]: 9.331%; Activity [23]: 8.746%; Activity [24]: 11.666%; Activity [25]: 14.31%; Activity [26]: Active; half-life [27]: 3.8 h; half-life [28]: 2.6 h
CN1CCC(CNC(=O)c2ccc(COCCC3CCN(c4nnc(NC(=O)Cc5ccccc5)s4)CC3)cc2)CC1 | 2310 | 320 | – | – | – | – | 1510 | – | – | – | Ratio IC50 [29]: 20; Ratio IC50 [30]: 20
CCCN1CCC(CNC(=O)c2ccc(COCCC3CCN(c4nnc(NC(=O)Cc5ccccc5)s4)CC3)cc2)CC1 | 1320 | 290 | – | – | – | – | 1690 | – | – | – | Ratio IC50 [29]: 20; Ratio IC50 [30]: 20
